Measured values published in ChEMBL document CHEMBL1150598, “Decipinin A and decipienolides A and B: new bioactive metabolites from the coprophilous fungus Podospora decipiens” (2002).
The source made the active and inactive calls. No cut-off for these calls is given here.

How the values were obtained:
[1] = tested on: Ascobolus; experiment: Antimicrobial activity against Ascobolus furfuraceus NRRL 6460 after 4 days by standard disk assay; type: functional, organism-based
[2] = tested on: Candida albicans; experiment: Antimicrobial activity against Candida albicans ATCC 90029 after 4 days by standard disk assay; type: functional, organism-based
[3] = tested on: Sordaria fimicola; experiment: Antimicrobial activity against Sordaria fimicola NRRL 6459 after 4 days by standard disk assay; type: functional, organism-based
[4] = tested on: Fusarium verticillioides; experiment: Antimicrobial activity against Fusarium verticillioides ATCC 24378 at 250 ug/disk after 4 days by standard disk assay; type: functional; details: ATCC 24378, 96 h, read-out: IZ
[5] = tested on: Bacillus subtilis; experiment: Antimicrobial activity against Bacillus subtilis ATCC 6051 at 200 ug/disk after 4 days by standard disk assay; type: functional; details: ATCC 6051, 96 h, read-out: IZ

| SMILES | Activity [1] | Activity [2] | Activity [3] | zone of inhibition at 250 µg/disc [4] | zone of inhibition at 200 µg/disc [5] |
| --- | --- | --- | --- | --- | --- |
| CCC/C=C/C=C/C=C/C(=O)O[C@@H]1C2=CC(=O)C(C)(OC(C)=O)C(=O)C2=CO[C@]12O[C@H](C)CC[C@@H]2OC(=O)CCC(=O)O (some centres undefined) [DECIPININ A] | inactive | inactive | inactive | 22 mm | 9 mm |
| C=C1C(OC(=O)C(C)(C)C(C)O)CC2CC1C21CO[C@@]2(C[C@H](C)C(=O)O2)C1.C=C1C(OC(=O)C(C)(C)C(C)O)CC2CC1C21CO[C@]2(C[C@H](C)C(=O)O2)C1 (some centres undefined) [DECIPIENOLIDE A AND B] | inactive | inactive | inactive | – | 9 mm |
